Experimental data from PubChem BioAssay (NCI).
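96-well plates; 48 h exposure; 5 concentrations. Endpoints by linear interpolation between flanking doses. Not reached: highest tested concentration assigned. GI50: concentration for 50% inhibition of growth. The concentration for full growth arrest is given as TGI.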

Columns and labels:
Assay in all cases: DTP human tumour cell line panel, 48 h
[1] = tested on: CCRF-CEM leukemia
[2] = tested on: KM12 colon
[3] = tested on: RPMI-8226 leukemia
[4] = tested on: SR leukemia
[5] = tested on: SK-MEL-5 melanoma
[6] = tested on: M14 melanoma
[7] = tested on: ACHN renal
[8] = tested on: NCI-H226 lung
[9] = tested on: NCI/ADR-RES ovarian
[10] = tested on: SK-MEL-2 melanoma

| Compound | GI50 [1] [µM] | TGI [1] [µM] | GI50 [2] [µM] | TGI [2] [µM] | GI50 [3] [µM] | TGI [3] [µM] | GI50 [4] [µM] | TGI [4] [µM] | GI50 [5] [µM] | TGI [5] [µM] | GI50 [6] [µM] | TGI [6] [µM] | GI50 [7] [µM] | TGI [7] [µM] | GI50 [8] [µM] | TGI [8] [µM] | GI50 [9] [µM] | TGI [9] [µM] | GI50 [10] [µM] | TGI [10] [µM] |
| --- | --- | --- | --- | --- | --- | --- | --- | --- | --- | --- | --- | --- | --- | --- | --- | --- | --- | --- | --- | --- |
| Cn1c2ccccc2c2c3c(c4c5ccccc5n(CCCCCC#N)c4c21)C(=O)N(O)C3=O | 0.374 | > 100 | 1.5 | 5.95 | 0.609 | 4.65 | 0.333 | > 100 | 0.319 | 1.09 | 0.39 | > 100 | 0.317 | 1.19 | 1.6 | 7.14 | 0.873 | 24.2 | 1.54 | 3.84 |
| C=C1C(=O)O[C@H]2[C@H]1CC/C(COC(=O)CCC(=O)OC/C1=C/CC[C@@]3(C)O[C@H]3[C@H]3OC(=O)C(=C)[C@@H]3CC1)=C\CC[C@@]1(C)O[C@@H]21 | 0.251 | 0.778 | 3.88 | 16.6 | 1.22 | 4.16 | 0.345 | 2.52 | 2.05 | 5.27 | 1.6 | 5.32 | 0.753 | 2.03 | 2.46 | 11.7 | 14 | 40.5 | 2.89 | 9.38 |
| COC(=O)c1oc2c(C(=O)/C=C/c3ccc(OC)cc3)c(OCCCN3CCCCC3)ccc2c1C | 0.783 | 3.4 | 1.7 | 3.66 | 1.72 | 4 | 1.45 | 3.78 | 1.72 | 3.17 | 1.61 | 3.59 | 1.03 | 2.54 | 2.32 | 6.38 | 2.31 | – | 1.87 | 7.65 |
| COC(=O)c1c(-c2ccccc2)csc1NC(=O)c1c(-c2ccccc2)noc1C | 1.77 | > 100 | 0.802 | > 100 | 0.793 | > 100 | 0.282 | > 100 | 0.185 | > 100 | 6.86 | > 100 | 0.995 | > 100 | 1.56 | > 100 | 1.5 | > 100 | – | > 100 |
| NC(=O)NC(=O)CI | 0.757 | 2.31 | 18.2 | 35.5 | 5.38 | 13.1 | 2.52 | 7.69 | 12.9 | 26.4 | 5.12 | 17.4 | 1.78 | 3.39 | 6.79 | 28.2 | 18.7 | 41.9 | 5.78 | 18.7 |
| CCN1C(=O)N(c2c(F)c(OC)cc(OC)c2F)Cc2cnc3[nH]c(CN4CCOCC4)cc3c21 | 2.13 | > 100 | 5.08 | > 100 | 3.79 | > 100 | 1.62 | 9.95 | 16.9 | > 100 | 1.32 | > 100 | 1.02 | 14.1 | 0.8 | > 100 | 4.48 | > 100 | 1.08 | 41.8 |
| Cc1ccc(/C=C(\C#N)n2nnc3cc(F)c(F)cc32)cc1 | 1.81 | > 100 | 2.65 | 15.4 | 2.85 | 8.71 | 0.391 | 13.9 | 3.65 | 14.2 | 2.07 | 14.9 | 4.2 | 34.7 | 6.45 | 63.2 | 2.53 | > 100 | 2.26 | 7.97 |
| COc1ccccc1Nc1nc(-c2cc3cccc(C(F)(F)F)c3oc2=O)cs1 | 0.291 | > 100 | 0.0723 | 22.3 | 0.24 | > 71.4 | 0.084 | > 100 | 0.169 | 0.627 | 0.111 | – | 0.106 | > 100 | 0.601 | 56.3 | 0.0468 | 5.55 | 0.262 | > 100 |
| CSC(=S)N/N=C(\C)c1ccccn1 | < 0.01 | 1.68 | 0.346 | 14.3 | 0.0232 | 16.1 | < 0.033 | 6.46 | 0.28 | 1.04 | 0.0997 | 2.33 | 0.232 | 11.8 | 0.335 | 3.45 | 0.0262 | 15.7 | 0.329 | 3.75 |
| Cn1c(=O)c(Cc2ccc(F)cc2F)cc2cnc(NC3CCOCC3)nc21 | > 25 | > 25 | > 25 | > 25 | > 23.6 | > 25 | > 25 | > 25 | 11.8 | > 25 | > 25 | > 25 | > 25 | > 25 | > 21.1 | > 25 | > 15.5 | > 25 | > 25 | > 25 |
| O=C(CC1C(=O)Nc2ccccc2S1=O)Nc1cccc(Cl)c1 (centres undefined) | – | > 57.6 | – | > 81.5 | – | > 31 | – | 22.1 | – | > 46.1 | – | > 65 | – | > 100 | – | > 76.4 | – | 49.8 | – | > 100 |
| Oc1ccc2ccccc2c1/C=N\Nc1ccccn1 | 0.328 | – | 1.09 | > 100 | 0.654 | > 100 | 0.357 | > 100 | 1.57 | > 50.1 | 0.441 | 5.34 | 0.331 | – | 2.2 | > 41.9 | 0.281 | 33.3 | – | > 49 |
| O=Nc1c(-c2cccc([N+](=O)[O-])c2)nc2ncccn12 | 1.86 | 4.44 | 12.4 | 26.8 | 1.47 | 6.56 | 0.218 | 2.22 | 15.2 | 32.2 | 12 | 26.8 | 8.73 | 23.2 | 16.2 | 37 | 15.9 | 71.7 | 14.7 | 38.1 |
| COc1ccc(-n2c(N)c(C(=O)NCCN3CCOCC3)c3nc4ccccc4nc32)cc1OC | 5.15 | > 100 | 8.26 | > 100 | 3.36 | > 100 | 0.63 | 22.3 | 3.22 | > 100 | 15.1 | > 100 | 4.16 | > 100 | 11.4 | > 100 | 36 | > 100 | 2.94 | 42.8 |
| C=C1C(=O)O[C@H]2[C@H]1CC/C(Cn1cc(CCC)nn1)=C\CC[C@@]1(C)O[C@@H]21 | 3 | 9.71 | 17.6 | 34.1 | 5.52 | 27.1 | 2.88 | 26.1 | 15.3 | 29.6 | 3.99 | 17.9 | 3.81 | 15.6 | 12.6 | 33.4 | 15.2 | 33.4 | 16.3 | 34.5 |
| Cc1cc(S(N)(=O)=O)c(S/C(=N\NS(=O)(=O)c2ccc(Cl)cc2)c2ccc(Cl)cc2)cc1Cl | 61 | > 100 | 70.6 | > 100 | 22 | > 100 | 29.1 | > 100 | > 100 | > 100 | > 100 | > 100 | 38.6 | > 100 | 92.4 | > 100 | > 100 | > 100 | > 100 | > 100 |
| COc1ccc(C(=O)Nc2cccc(C3CC(=O)c4c(cc(OC)c(OC)c4OC)O3)c2)cc1 (centres undefined) | 0.426 | > 100 | 1.08 | 14.7 | 0.726 | 3.51 | 0.171 | > 100 | 1.49 | 4.04 | 0.534 | 41.7 | 2.57 | > 100 | 2.6 | 43.1 | 0.629 | 17.6 | 2.09 | 27.1 |
| O=C1NC(=NCCc2ccccc2Cl)S/C1=C\c1ccc2ncccc2c1 | 4.09 | > 25 | 2.5 | > 25 | 1.83 | > 25 | 0.622 | 2.25 | 6.92 | 24.6 | 6.48 | > 25 | 6.5 | > 25 | 7.61 | > 25 | 7.73 | > 25 | 5.86 | 14 |
| Cc1c2c(nn1-c1ccc(S/N=C3\SCC(=O)CN3c3ccccc3)cc1)-c1ccccc1CC2 | 28.1 | > 50 | 46.5 | > 50 | 7.85 | > 50 | 1.88 | > 50 | 8.11 | 22.3 | 13.4 | 43.7 | 24.1 | > 50 | 9.75 | 27 | 14.5 | > 50 | 18.2 | 47 |
| NCCOc1ccccn1 | – | > 100 | – | > 100 | – | > 100 | – | > 100 | – | > 100 | – | > 100 | – | > 100 | – | > 100 | – | > 100 | – | > 100 |
| CO/N=C1/c2cc(OC)ccc2-c2c(NOC)nc3ccccc3c21 | 70.1 | > 100 | 37.5 | > 100 | 40.6 | > 100 | 38.7 | > 100 | 13.9 | 36 | > 100 | > 100 | 14.3 | 31.3 | 35.1 | > 100 | 53 | > 100 | 24.7 | 88.5 |
| CC(C)(C)c1ccc(-c2nnc(SCc3ccc(Cl)cc3)n2-c2cccc(C(F)(F)F)c2)cc1 | – | > 100 | – | > 100 | – | 30.6 | – | 31.5 | – | > 100 | – | > 100 | – | > 100 | – | 97.3 | – | > 100 | – | > 69.5 |
| C[n+]1c2ccccc2c(NC2CCNCC2)c2[nH]c3ccccc3c21 | 0.48 | 3.13 | 0.718 | 5.77 | 0.164 | 1.17 | 1.7 | > 100 | 0.488 | 2.32 | 2.41 | 13.4 | 4.68 | 32.1 | 0.384 | 2.52 | > 100 | > 100 | 0.207 | 1.22 |
